Measured values reported in PubChem BioAssay AID330 (DTP/NCI, 2004).
“And” between values parts separate entries of the source, which are not always exact repeats. Identical values can stand only once. Inconclusive results and toxic doses are left out. The calls were made as follows: active = survival T/C of 150% or more; inactive = T/C below 125% in these data. Peptide text beside a SMILES is read from it.

Test system: P388 leukemia ip, CD2F1 mice, survival T/C
Experiment: NCI In Vivo Anticancer Drug Screen. Data for tumor model P388 Leukemia (intraperitoneal) in CD2F1 (CDF1) mice
Details: endpoint: median survival time, higher = longer survival
How it was run: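 Mice carrying the transplanted tumor received test compound or vehicle. Survival was recorded in each group, and the value is the treated-group measurement divided by that of the vehicle-treated control group.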

[1] = dose: 100.0 mg/kg/injection, schedule: Q04DX002 (ip), vehicle: saline with Tween-80
[2] = dose: 200.0 mg/kg/injection, schedule: Q04DX002 (ip), vehicle: saline with Tween-80
[3] = dose: 50.0 mg/kg/injection, schedule: Q01DX005 (ip), vehicle: Klucel (hydroxypropylcellulose) (HPC)
[4] = dose: 12.5 mg/kg/injection, schedule: Q01DX009 (ip), vehicle: saline
[5] = dose: 25.0 mg/kg/injection, schedule: Q01DX009 (ip), vehicle: saline
[6] = dose: 12.5 mg/kg/injection, schedule: Q01DX005 (ip), vehicle: Klucel (hydroxypropylcellulose) (HPC)
[7] = dose: 25.0 mg/kg/injection, schedule: Q01DX009 (ip), vehicle: saline with Tween-80

Measured: T/C

CC(C)CC(NC(=O)C(Cc1ccccc1)NC(=O)CNC(=O)CN)C(=O)O (stereo not drawn) (H-GGFL-OH; configuration not given here)
inactive: dose: 12.5 mg/kg/injection, schedule: Q01DX005 (ip), vehicle: water 100 % of control | dose: 25.0 mg/kg/injection, schedule: Q01DX005 (ip), vehicle: water 100 % of control | dose: 50.0 mg/kg/injection, schedule: Q01DX005 (ip), vehicle: water 96 % of control | dose: 100.0 mg/kg/injection, schedule: Q01DX005 (ip), vehicle: water 102 % of control | dose: 200.0 mg/kg/injection, schedule: Q01DX005 (ip), vehicle: water 96 % of control

O=c1c2c([nH]c3c4c(ccc13)NCCC4)CCC2
inactive: dose: 50.0 mg/kg/injection, schedule: Q04DX002 (ip), vehicle: saline with Tween-80 95 % of control | [1] 94 % of control | [2] 92 % of control

CC1=C(C)C(N2CCOCC2)CS(=O)(=O)O1 (stereo not drawn)
inactive: [3] 109 % of control | dose: 100.0 mg/kg/injection, schedule: Q01DX005 (ip), vehicle: Klucel (hydroxypropylcellulose) (HPC) 101 % of control

CCN(CC)CCCNc1cnc2ccc(OC)cc2n1
inactive: dose: 25.0 mg/kg/injection, schedule: Q04DX003 (ip), vehicle: saline 94 % of control | dose: 50.0 mg/kg/injection, schedule: Q04DX003 (ip), vehicle: saline 91 % of control | dose: 100.0 mg/kg/injection, schedule: Q04DX003 (ip), vehicle: saline 103 % of control

COc1cc(C=C2C(=O)C=CC2=O)ccc1OCc1ccccc1
inactive: dose: 2.5 mg/kg/injection, schedule: Q04DX002 (ip), vehicle: saline with Tween-80 102 % of control | dose: 5.0 mg/kg/injection, schedule: Q04DX002 (ip), vehicle: saline with Tween-80 113 % of control | dose: 10.0 mg/kg/injection, schedule: Q04DX002 (ip), vehicle: saline with Tween-80 107 % of control | dose: 25.0 mg/kg/injection, schedule: Q04DX002 (ip), vehicle: saline with Tween-80 111 % of control

CN1CCN(CC(O)Cn2c(=O)c3c(nc(N4CCN(C)CC4)n3C)n(C)c2=O)CC1 (stereo not drawn)
inactive: dose: 50.0 mg/kg/injection, schedule: Q01DX009 (ip), vehicle: Klucel (hydroxypropylcellulose) (HPC) 87 % of control | dose: 100.0 mg/kg/injection, schedule: Q01DX009 (ip), vehicle: Klucel (hydroxypropylcellulose) (HPC) 102 % of control | dose: 200.0 mg/kg/injection, schedule: Q01DX009 (ip), vehicle: Klucel (hydroxypropylcellulose) (HPC) 105 % of control

CCSC(=S)N(CC)c1nc2ccccc2o1
inactive: [1] 105 % of control | [2] 113 % of control | dose: 400.0 mg/kg/injection, schedule: Q04DX002 (ip), vehicle: saline with Tween-80 122 % of control

COC1C(O[C@@H]2c3c(cc4c(c3O)C(=O)c3c(O)cccc3C4=O)C(=O)C(C)(O)C2OC)OC(C)C(O)C1O (stereo partly drawn)
inactive: dose: 6.25 mg/kg/injection, schedule: Q04DX003 (ip), vehicle: Klucel (hydroxypropylcellulose) (HPC) 102 % of control | dose: 12.5 mg/kg/injection, schedule: Q04DX003 (ip), vehicle: Klucel (hydroxypropylcellulose) (HPC) 101 % of control | dose: 25.0 mg/kg/injection, schedule: Q04DX003 (ip), vehicle: Klucel (hydroxypropylcellulose) (HPC) 106 % of control | dose: 50.0 mg/kg/injection, schedule: Q04DX003 (ip), vehicle: Klucel (hydroxypropylcellulose) (HPC) 101 % of control and 104 % of control | dose: 100.0 mg/kg/injection, schedule: Q04DX003 (ip), vehicle: Klucel (hydroxypropylcellulose) (HPC) 104 % of control | dose: 200.0 mg/kg/injection, schedule: Q04DX003 (ip), vehicle: Klucel (hydroxypropylcellulose) (HPC) 121 % of control

S=c1cc[nH]c2ccccc12
inactive: dose: 6.25 mg/kg/injection, schedule: Q01DX009 (ip), vehicle: other 104 % of control | dose: 12.5 mg/kg/injection, schedule: Q01DX009 (ip), vehicle: other 104 % of control | dose: 25.0 mg/kg/injection, schedule: Q01DX009 (ip), vehicle: other 96 % of control | dose: 50.0 mg/kg/injection, schedule: Q01DX009 (ip), vehicle: other 112 % of control | dose: 100.0 mg/kg/injection, schedule: Q01DX009 (ip), vehicle: other 110 % of control

CC1COC(O)(C2OCOC(C3CC(=O)NC(=O)C3)C2O)C1C (stereo not drawn)
inactive: dose: 0.01 mg/kg/injection, schedule: Q01DX009 (ip), vehicle: distilled water + alcohol 100 % of control | dose: 0.03 mg/kg/injection, schedule: Q01DX009 (ip), vehicle: distilled water + alcohol 102 % of control | dose: 0.06 mg/kg/injection, schedule: Q01DX009 (ip), vehicle: distilled water + alcohol 102 % of control | dose: 0.12 mg/kg/injection, schedule: Q01DX009 (ip), vehicle: distilled water + alcohol 102 % of control

CNS(=O)(=O)O
inactive: [4] 86 % of control | [5] 104 % of control | dose: 50.0 mg/kg/injection, schedule: Q01DX009 (ip), vehicle: saline 105 % of control | dose: 100.0 mg/kg/injection, schedule: Q01DX009 (ip), vehicle: saline 100 % of control

C=CCC1=C(C2CO2)C(=O)c2ccccc2C1=O (stereo not drawn)
inactive: dose: 6.25 mg/kg/injection, schedule: Q01DX005 (ip), vehicle: Klucel (hydroxypropylcellulose) (HPC) 99 % of control | [6] 99 % of control

COC(=O)[C@@]12OC[C@]34[C@H]([C@@H](O)[C@@H]1O)[C@@]1(C)CC(=O)C(O)=C(C)[C@@H]1C[C@H]3OC(=O)[C@H](OC(=O)/C=C(\C)C1(C)CO1)[C@@H]24 (stereo partly drawn)
inactive: dose: 0.12 mg/kg/injection, schedule: Q01DX009 (ip), vehicle: saline + alcohol 119 % of control | dose: 0.5 mg/kg/injection, schedule: Q01DX009 (ip), vehicle: saline + alcohol 105 % of control

O=[N+]([O-])c1ccc(-c2nc(/C=N/N3CCCCC3)cs2)o1
inactive: [7] 100 % of control | dose: 50.0 mg/kg/injection, schedule: Q01DX009 (ip), vehicle: saline with Tween-80 100 % of control | dose: 100.0 mg/kg/injection, schedule: Q01DX009 (ip), vehicle: saline with Tween-80 99 % of control

COc1ccc2c(c1OC)N(C)CC1=C2OC(C)(C)C2C1CC1(C)CC2c2c(c3ccc(OC)c(OC)c3n(C)c2=O)O1 (stereo not drawn)
inactive: [6] 90 % of control | dose: 25.0 mg/kg/injection, schedule: Q01DX005 (ip), vehicle: Klucel (hydroxypropylcellulose) (HPC) 93 % of control | [3] 90 % of control

Cc1nn2cc(-c3ccc4ccccc4c3)nc2[nH]c1=O
inactive: dose: 100.0 mg/kg/injection, schedule: Q01DX001 (ip), vehicle: Klucel (hydroxypropylcellulose) (HPC) 100 % of control | dose: 200.0 mg/kg/injection, schedule: Q01DX001 (ip), vehicle: Klucel (hydroxypropylcellulose) (HPC) 99 % of control | dose: 400.0 mg/kg/injection, schedule: Q01DX001 (ip), vehicle: Klucel (hydroxypropylcellulose) (HPC) 100 % of control

CC1=CC(=O)[C@@H](O)[C@]2(C)[C@H]3[C@@]4(O)OC[C@]35[C@H]([C@@H](C)[C@H]4O)[C@@H](O)C(=O)O[C@@H]5C[C@@H]12
inactive: dose: 6.25 mg/kg/injection, schedule: Q01DX009 (ip), vehicle: saline 115 % of control | [4] 104 % of control | [5] 115 % of control

CCOC1(C(C)O)CC(c2ccccc2)=NO1 (stereo not drawn)
inactive: dose: 60.0 mg/kg/injection, schedule: Q01DX005 (ip), vehicle: saline with Tween-80 108 % of control | dose: 120.0 mg/kg/injection, schedule: Q01DX005 (ip), vehicle: saline with Tween-80 101 % of control | dose: 240.0 mg/kg/injection, schedule: Q01DX005 (ip), vehicle: saline with Tween-80 100 % of control

CCCn1cc2c3c(cccc31)[C@H]1C[C@@H](C)CN(C)[C@@H]1C2
inactive: dose: 3.12 mg/kg/injection, schedule: Q01DX005 (ip), vehicle: saline with Tween-80 102 % of control and 107 % of control | dose: 6.25 mg/kg/injection, schedule: Q01DX005 (ip), vehicle: saline with Tween-80 100 % of control and 105 % of control and 107 % of control | dose: 12.5 mg/kg/injection, schedule: Q01DX005 (ip), vehicle: saline with Tween-80 102 % of control and 92 % of control and 93 % of control | dose: 25.0 mg/kg/injection, schedule: Q01DX005 (ip), vehicle: saline with Tween-80 98 % of control and 101 % of control | dose: 50.0 mg/kg/injection, schedule: Q01DX005 (ip), vehicle: saline with Tween-80 101 % of control | dose: 100.0 mg/kg/injection, schedule: Q01DX005 (ip), vehicle: saline with Tween-80 104 % of control | dose: 200.0 mg/kg/injection, schedule: Q01DX005 (ip), vehicle: saline with Tween-80 98 % of control

CC(C(=O)O)N1C(=O)C=CC1=O (stereo not drawn)
inactive: dose: 12.5 mg/kg/injection, schedule: Q01DX009 (ip), vehicle: saline with Tween-80 97 % of control | [7] 91 % of control

COc1ccc(/C=C2\C=C3OCOC3=CC2=O)cc1
inactive: dose: 2.5 mg/kg/injection, schedule: Q01DX009 (ip), vehicle: saline with Tween-80 100 % of control | dose: 5.0 mg/kg/injection, schedule: Q01DX009 (ip), vehicle: saline with Tween-80 100 % of control | dose: 10.0 mg/kg/injection, schedule: Q01DX009 (ip), vehicle: saline with Tween-80 100 % of control
